In PubChem BioAssay (NCI) one finds GI50 and TGI data, which are given here for ten compounds.

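Method: 48-hour compound exposure of cells in 96-well plates, five concentrations, linear interpolation of endpoints. GI50 is the concentration that inhibits growth by half. The concentration for full growth arrest is given as TGI.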 Where only a bound is given, the exact number is not on record here.

Some test systems named below: SK-MEL-28 melanoma; KM12 colon; NCI-H460 lung; SK-MEL-2 melanoma; MDA-MB-435; SR leukemia; HCT-15 colon; M14 melanoma; DU-145 prostate.
Common to all, as to assay: inhibition of tumour cell growth, NCI panel, 48 h

As for `CC[C@@]1(c2ccccc2)C2=C(CC(C)(C)CC2=O)Nc2[nH]ncc21`, the GI50 in the test on SK-MEL-28 melanoma, in the test on KM12 colon, with NCI-H460 lung, in the test with SK-MEL-2 melanoma, with MDA-MB-435 and with SR leukemia was more than 100 µM each time. For the same compound, the results for the GI50 in the test on HCT-15 colon, in the test on M14 melanoma and with DU-145 prostate were 89 µM, more than 100 µM and more than 100 µM, respectively. For the same compound, the TGI in the test with SK-MEL-28 melanoma, with KM12 colon, in the test on NCI-H460 lung, in the test on SK-MEL-2 melanoma, in the test on MDA-MB-435 and in the test with SR leukemia was more than 100 µM throughout. The TGI with HCT-15 colon, in the test with M14 melanoma and in the test with DU-145 prostate was more than 100 µM each time.

Take `CCOCC(=O)N[C@H]1CCc2cc(OC)c(OC)c(OC)c2-c2ccc(OC)c(=O)cc21`: the TGI is more than 100 µM in the test on SK-MEL-28 melanoma; 0.0334 µM with KM12 colon; more than 16.7 µM with NCI-H460 lung; more than 15.8 µM in the test on SK-MEL-2 melanoma; less than 0.0196 µM in the test with MDA-MB-435; more than 100 µM in the test with SR leukemia. The TGI in the test on HCT-15 colon was 19.1 µM; in the test with M14 melanoma, 20.2 µM; with DU-145 prostate it was 0.107 µM.

Turning to `O=C(CCc1nnc2sc(-c3ccc(Cl)cc3Cl)nn12)c1nc2ccccc2[nH]1`, the GI50 with SK-MEL-28 melanoma was 0.452 µM; in the test with KM12 colon it was 1.25 µM; in the test with NCI-H460 lung, 0.988 µM; in the test on SK-MEL-2 melanoma, 1.78 µM; in the test on MDA-MB-435, 0.382 µM; in the test on SR leukemia, 0.301 µM. The GI50 in the test with HCT-15 colon was 0.452 µM; with M14 melanoma, 0.282 µM; with DU-145 prostate it was 1.15 µM. Besides, the TGI was determined as 1.68 µM in the test on SK-MEL-28 melanoma; 2.86 µM in the test on KM12 colon; 2.39 µM with NCI-H460 lung; 5.4 µM with SK-MEL-2 melanoma; 2.22 µM with MDA-MB-435; 2.77 µM with HCT-15 colon. For the same compound, the TGI with M14 melanoma was 1.03 µM; in the test with DU-145 prostate, 2.38 µM.

For the compound `COC1(C)CP(=O)(OC(C)C)CC(C)=C1Cl` (configuration not stated), the TGI is 61.3 µM with SK-MEL-28 melanoma; 34 µM in the test with KM12 colon; 66.3 µM in the test on NCI-H460 lung; 45.9 µM with SK-MEL-2 melanoma; more than 100 µM with MDA-MB-435; more than 100 µM in the test with SR leukemia. The TGI turned out to be 29.2 µM in the test on HCT-15 colon, 46.2 µM in the test with M14 melanoma and 82.7 µM in the test on DU-145 prostate.

Take `NC(=O)NS(=O)(=O)c1ccc(N2N=C(C(F)(F)F)CC2c2cc(C(F)(F)F)cc(C(F)(F)F)c2)cc1` (configuration not stated): the GI50 in the test with SK-MEL-28 melanoma is 4.39 µM; in the test on KM12 colon, 1.83 µM; with NCI-H460 lung, 3.47 µM; with SK-MEL-2 melanoma it was 1.2 µM; with MDA-MB-435, 2.57 µM; in the test on SR leukemia, 3.08 µM. The GI50 in the test with HCT-15 colon was 2.99 µM; in the test with M14 melanoma it was 4.96 µM; in the test on DU-145 prostate it was 3.54 µM. Moreover, the TGI is 16.7 µM in the test on SK-MEL-28 melanoma; 4.65 µM in the test with KM12 colon; 11.7 µM with NCI-H460 lung; 9.5 µM in the test on SK-MEL-2 melanoma; 7.16 µM in the test on MDA-MB-435; more than 100 µM in the test on SR leukemia. For the same compound, the results for the TGI with HCT-15 colon, with M14 melanoma and with DU-145 prostate were 13.6 µM, 21.1 µM and 15.1 µM, respectively.

Regarding `O=c1cc(-c2ccccc2)oc2cc(OC/C(=N/O)c3ccccc3)ccc12`, the GI50 in the test with SK-MEL-28 melanoma is 12.3 µM; with KM12 colon, 13.2 µM; in the test with NCI-H460 lung, 14.2 µM; in the test with SK-MEL-2 melanoma, 20.2 µM; with MDA-MB-435 it was more than 50 µM; with SR leukemia, 31.8 µM. The GI50 with HCT-15 colon is 22.2 µM; in the test with M14 melanoma, more than 50 µM; with DU-145 prostate it was 25.1 µM. The TGI is 32.2 µM in the test on SK-MEL-28 melanoma; more than 50 µM in the test on KM12 colon; more than 50 µM in the test with NCI-H460 lung; more than 50 µM in the test with SK-MEL-2 melanoma; more than 50 µM in the test on MDA-MB-435; more than 50 µM in the test with SR leukemia. Moreover, the TGI in the test on HCT-15 colon, in the test on M14 melanoma and in the test with DU-145 prostate was more than 50 µM each time.

In the case of `C[N+]1=C(/C=C/c2ccc(O)c3ncccc23)C(C)(C)c2ccccc21`, the GI50 in the test with SK-MEL-28 melanoma was 4.35 µM; in the test on KM12 colon, 2.97 µM; in the test on NCI-H460 lung it was 1.77 µM; in the test with SK-MEL-2 melanoma, 3.88 µM; in the test on MDA-MB-435, 2.35 µM; in the test on SR leukemia, 2.13 µM. Further, the figures for the GI50 with HCT-15 colon, in the test on M14 melanoma and in the test with DU-145 prostate were 0.893 µM, 2.53 µM and 2.98 µM, respectively. Further, the TGI with SK-MEL-28 melanoma stood at 16.4 µM; in the test with KM12 colon it was 10.5 µM; in the test with NCI-H460 lung, 3.8 µM; with SK-MEL-2 melanoma it was 24 µM; in the test with MDA-MB-435, 7.01 µM; with SR leukemia it was 15 µM. The TGI with HCT-15 colon was determined as 15.1 µM; in the test on M14 melanoma it was 7.7 µM; with DU-145 prostate it was 12.1 µM.

As for `COc1cc[nH]c1/C=C1\C(=O)Nc2ccc(F)c(C#CC3(O)CCNCC3)c21`, the GI50 is 0.14 µM in the test on SK-MEL-28 melanoma; 0.0025 µM with KM12 colon; 0.0778 µM in the test on NCI-H460 lung; 0.00988 µM in the test with SK-MEL-2 melanoma; 0.0745 µM in the test on MDA-MB-435; 0.00864 µM in the test on SR leukemia. Also, the results for the GI50 with HCT-15 colon, in the test with M14 melanoma and in the test with DU-145 prostate were 0.139 µM, 0.0413 µM and 0.0429 µM, respectively. For the same compound, the TGI in the test with SK-MEL-28 melanoma worked out at 1.39 µM; in the test with KM12 colon, 0.726 µM; in the test on NCI-H460 lung it was 0.747 µM; in the test with SK-MEL-2 melanoma it was 0.464 µM; in the test with MDA-MB-435 it was 0.504 µM; in the test on SR leukemia, 0.141 µM. Besides, the TGI came to 1.93 µM in the test with HCT-15 colon, 0.684 µM with M14 melanoma and 2.14 µM with DU-145 prostate.

Regarding `Cc1ccc(-c2nc3nc(-c4ccccc4)nc(N4CCCNCC4)c3o2)cc1`, the GI50 in the test on SK-MEL-28 melanoma was 1.84 µM; with KM12 colon it was 1.77 µM; with NCI-H460 lung, 1.86 µM; in the test on SK-MEL-2 melanoma, 2.11 µM; in the test with MDA-MB-435 it was 1.93 µM; in the test with SR leukemia, 0.222 µM. Moreover, the GI50 is 1.58 µM in the test with HCT-15 colon, 1.96 µM in the test with M14 melanoma and 1.82 µM in the test on DU-145 prostate. In addition, the TGI with SK-MEL-28 melanoma came to 3.28 µM; in the test with KM12 colon it was 3.41 µM; in the test on NCI-H460 lung it was 3.53 µM; with SK-MEL-2 melanoma, 3.84 µM; in the test with MDA-MB-435 it was 3.42 µM; in the test with SR leukemia it was 0.554 µM. Also, the TGI stood at 3.23 µM in the test with HCT-15 colon, 3.69 µM in the test on M14 melanoma and 3.3 µM with DU-145 prostate.

For `O=C1c2ccccc2C(=O)N1CCc1ncc[nH]1`, the TGI in the test with SK-MEL-28 melanoma, in the test with KM12 colon, in the test on NCI-H460 lung, with SK-MEL-2 melanoma, in the test with MDA-MB-435 and in the test on SR leukemia was more than 100 µM throughout. Also, the TGI in the test with HCT-15 colon, in the test on M14 melanoma and in the test with DU-145 prostate was more than 100 µM each time.
